PMC9769880, “Diverse Sensory Repertoire of Paralogous Chemoreceptors Tlp2, Tlp3, and Tlp4 in Campylobacter jejuni” (Microbiology Spectrum, 2022)
“Also recorded” adds a separate entry of the source. Read-outs that look alike come from different tables or passages of the source.

Legend:
Tlp4 [1] = biological target: T1, Tlp4 (Campylobacter jejuni, UniProt Q0PBP3); assay type: binding
Procedure: (§1) Glycan (>400 monosaccharides or complex glycans) and small molecule arrays containing amino acids and salts were performed as described previously by Day et al. ([67]). Briefly, 1 μg of purified recombinant protein was complexed with anti-His antibody (Cell Signaling Technology) and rabbit anti-mouse/goat anti-rabbit Alexa 555-IgG (Thermo Scientific) at a molar ratio of 1:0.5:0.25 and then incubated on the array for […] in phosphate-buffered saline (PBS). The array slides were scanned at 488/520 nm and analyzed using InnoScan 1100 with MAPIX software. All arrays were performed in triplicate with a total of 12 data points for each glycan tested; the complete data set and MIRAGE (i.e., minimum information regarding a glycomics experiment) results are shown in Tables S3 and S8.
(§2) Table S8 - Supplementary glycan microarray document based on M IRAGE guidelines. D O I:
(§3) Classification Guidelines
(§4) 1. Sample: Glycan Binding Sample
(§5) Origin: Helicobacter pylori SS1; produced as a recombinant His - tagged protein in E.
(§6) The preparation of Tlp2,3, and 4 is explained in the Materials and Methods section:
(§7) Expression and purification of the periplasmic domain of Tlp2,3, and 4.
(§8) Sample Sample is a His Tagged protein containing only the periplasmic receptor domain of the modifications full length Tlp2,3, and 4transmembrane protein.
(§9) Please see Materials and Methods: Tlps 2/3/4 bind to a range of ligands, including […]
(§10) Proteins were complexed with mouse anti- his antibody, with secondary and tertiary AlexaFluor555 antibodies (rabbit anti-mouse, goat anti-rabbit) at a molar ratio of 4:2:1.
(§11) The protein/antibody complex was incubated on ice for 10 mins prior to placing on the Assay protocol array. Arrays were performed with 1 µg of complexed protein incubated on the array for 20 min. Arrays were then washed 3 times in Array PBS (PBS + 2mM MgCl2 + 2mM CaCl2) then dried by centrifugation for 3 min at 300 x g . Scanning was performed us ing an Innopsys InnoScan 1100AL and analyzed using Mapix (Innopsys). Yes/no binding was determined by six positive replicate spots in three replicate experiments. Positive […]
(§12) Glycan Glycans in this study are listed in Table S2 and is a published library in doi:
(§13) Glycans were prepared in one of two ways for printing:
(§14) Glycan 1. Glycans (with IDs in number/letter format; e.g. 1A, 4C, 7K) were sourced modifications commercially from Dextra Laboratories, Elicityl and Carbosythn and were made into glycoamines using the protocol published in Day et al 2009 (doi:
(§15) Glycan arrays: We only use glycan arrays as a yes/no binding tool. Due to this we look only at binding that is unambiguously above background vs lack of binding above background. Average background + 3x standard deviation of the background of 20 sets of 4 spots of DMF:DMSO only spots is applied to determine if binding observed is […]
(§16) Only spots with values equal to or greater than this value were considered as binding from data of any tested slide. These values are slide […]
(§17) Data Small molecule arrays: We only use amino acid arrays as a yes/no binding tool. Due interpretation to this we look only at binding that is unambiguously above background vs lack of binding above background. Average background + 3x standard deviation of the background of 6 spots of PBS + 2% glycerol only spots is applied to determine if […]
(§18) Only spots with values equal to or greater than this value were considered as binding from data of any tested slide. These values are slide dependent. […]

Tlp2 [2] = biological target: T2, Tlp2 (Campylobacter jejuni, UniProt Q0PBZ3); assay type: binding
T2 sequence (Q0PBZ3 entry or part of it): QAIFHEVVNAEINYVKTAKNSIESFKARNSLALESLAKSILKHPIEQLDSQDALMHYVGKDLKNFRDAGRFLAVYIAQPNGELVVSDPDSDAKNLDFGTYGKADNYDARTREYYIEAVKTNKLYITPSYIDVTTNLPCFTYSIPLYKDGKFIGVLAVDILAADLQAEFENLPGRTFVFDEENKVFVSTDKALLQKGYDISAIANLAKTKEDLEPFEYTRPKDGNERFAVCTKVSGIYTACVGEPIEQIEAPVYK
Procedure: as §1, §2, §3, §4, §5, §6, §7, §8, §9, §10, §11, §12, §13, §14, §15, §16, §17, §18

Tlp3 [3] = biological target: T3, Tlp3 (Campylobacter jejuni, UniProt Q0P864); assay: biochemical; assay type: binding
T3 sequence (Q0P864 entry or part of it): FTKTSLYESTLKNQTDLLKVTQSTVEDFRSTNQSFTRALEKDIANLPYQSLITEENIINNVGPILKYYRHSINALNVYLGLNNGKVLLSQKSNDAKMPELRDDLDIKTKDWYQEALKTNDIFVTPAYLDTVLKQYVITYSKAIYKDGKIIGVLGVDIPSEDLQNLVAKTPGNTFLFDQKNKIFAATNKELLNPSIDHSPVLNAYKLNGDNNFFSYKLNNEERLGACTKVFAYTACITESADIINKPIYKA
Procedure: His-tagged proteins (Tlp2, -3, and -4) were prepared as previously described ([11]) DNA segments encoding the periplasmic sensory domains (33 to 286 amino acids) of Tlp2 and (38 to 297 amino acids) of Tlp4 were amplified (see Table S7), ligated into pGEM-T Easy (Promega) and subcloned into pET-19b (Novagen) (see Table S6). Recombinant proteins were expressed in E. coli BL21(DE3) using 1 mM IPTG (isopropyl-β-D-thiogalactopyranoside) and purified using His-select-nickel chromatography as described previously ([8], [11]). […] Protein concentrations were determined using a NanoDrop spectrophotometer (Thermo Fisher).
(§19) Surface plasmon resonance (SPR) experiments were performed as described previously ([10], [11]) with the following modifications. […] All ligands were prepared in PBS (pH 7.2) and serially diluted from 0.2 to 0.0125 mM. A 10-min dissociation period was allocated after the introduction of each analyte. SPR experiments were performed in single-cycle kinetics mode using the BIAcore S200 biosensor system (Cytiva) at 25°C in PBS (pH 7.2) at a flow rate of 30 μL/min. The equilibrium dissociation constant (KD) for each analyte was determined using BIAcore S200 Evaluation software with a report point 4 s after the injection stop to account for the bulk transfer of the small molecule against a large amount of immobilized protein (as shown in Fig. S5).

Tlp4 [4] = biological target: T1, Tlp4; assay: biochemical; assay type: binding
Procedure: (§20) His-tagged proteins (Tlp2, -3, and -4) were prepared as previously described ([11]) DNA segments encoding the periplasmic sensory domains (33 to 286 amino acids) of Tlp2 and (38 to 297 amino acids) of Tlp4 were amplified (see Table S7), ligated into pGEM-T Easy (Promega) and subcloned into pET-19b (Novagen) (see Table S6). Recombinant proteins were expressed in E. coli BL21(DE3) using 1 mM IPTG (isopropyl-β-D-thiogalactopyranoside) and purified using His-select-nickel chromatography as described previously ([8], [11]). The purity of the proteins was confirmed by SDS-PAGE and Western blot analysis with anti-His antibodies (Bio-Rad). Protein concentrations were determined using a NanoDrop spectrophotometer (Thermo Fisher).
as §19, with “modifications. Briefly, purified proteins were diluted to 0.15 μM in sodium acetate (pH 4.0) and immobilized onto an active flow cell of a CM5 sensor chip with a flow rate of 5 μL/min for 7 min of contact time using a standard amine coupling protocol. Immobilized protein levels for all three proteins ranged from 6028.3 to 9779.3 response units (RU) providing a minimum expected response maximum (RMax) between 20 and 50 RU for the small molecules tested.” for “modifications.”

Tlp2 [5] = biological target: T2, Tlp2; assay: biochemical; assay type: binding
Procedure: as §20
as §19, with “modifications. Briefly, purified proteins were diluted to 0.15 μM in sodium acetate (pH 4.0) and immobilized onto an active flow cell of a CM5 sensor chip with a flow rate of 5 μL/min for 7 min of contact time using a standard amine coupling protocol. Immobilized protein levels for all three proteins ranged from 6028.3 to 9779.3 response units (RU) providing a minimum expected response maximum (RMax) between 20 and 50 RU for the small molecules tested.” for “modifications.”

Tlp3 [6] = biological target: T3, Tlp3; assay: Glycan/small molecule arrays with Tlp3; settings: yes/no binding
Procedure: as §1, §2, §3, §4, §5, §6, §7, §8, §9, §10, §11, §12, §13, §14, §15, §16, §17, §18

Tlp2 [7] = assay type: cell-based, C. jejuni 11168-O; settings: nutrient-depleted chemotaxis assay
Procedure: (§21) The biological relevance of the binding specificities of the Tlp2,3,4 cluster was assessed by examining chemotactic responses of C. jejuni 11168-O tlp2, tlp3, and tlp4 wild-type (WT) and mutant strains using a nutrient-depleted chemotaxis assay. All ligands, with the exception of lysine and cysteine, interacted with Tlp2 and Tlp4 as attractants (Table 1), showing an ~1- to ~2-log decrease (P < 0.05) in migration toward the ligand compared to the WT strain.
(§22) Chemotaxis assays—the nutrient-depleted chemotaxis assay and the modified hard agar plug assay (tHAP)—were performed as previously described ([11], [34]). The chemotactic responses of all isogenic strains were compared to that of the C. jejuni 11168-O wild-type strain to distinguish between chemoattractants and chemorepellents. For the nutrient-depleted chemotaxis and modified hard agar plug (tHAP) assays, all differences were calculated as changes on a log10 scale. Controls were provided by using nonmotile (C. jejuni 81116 flaAB) and nonchemotactic (C. jejuni NCTC 11168 cheY) mutants ([69]) and mucin as negative and positive controls ([10]).

Tlp3^LBD K149A = Tlp3^LBD K149A (Campylobacter jejuni, UniProt Q0P864, K149A); assay: biochemical
Tlp3^LBD K149A, sequence (Q0P864 41-290 K149A): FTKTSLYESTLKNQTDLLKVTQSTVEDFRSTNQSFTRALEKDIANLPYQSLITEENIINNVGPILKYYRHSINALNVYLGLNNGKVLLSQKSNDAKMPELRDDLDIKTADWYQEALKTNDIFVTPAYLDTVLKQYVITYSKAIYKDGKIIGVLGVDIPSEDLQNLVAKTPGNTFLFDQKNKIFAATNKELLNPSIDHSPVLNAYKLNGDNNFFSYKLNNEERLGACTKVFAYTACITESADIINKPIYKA

Tlp3 [8] = assay type: cell-based, C. jejuni 11168-O; settings: chemotaxis of mutant compared to WT strain
Procedure: as §21, §22

Tlp3^LBD D196A = Tlp3^LBD D196A (Campylobacter jejuni, UniProt Q0P864, D196A); assay: biochemical
Tlp3^LBD D196A, sequence (Q0P864 41-290 D196A): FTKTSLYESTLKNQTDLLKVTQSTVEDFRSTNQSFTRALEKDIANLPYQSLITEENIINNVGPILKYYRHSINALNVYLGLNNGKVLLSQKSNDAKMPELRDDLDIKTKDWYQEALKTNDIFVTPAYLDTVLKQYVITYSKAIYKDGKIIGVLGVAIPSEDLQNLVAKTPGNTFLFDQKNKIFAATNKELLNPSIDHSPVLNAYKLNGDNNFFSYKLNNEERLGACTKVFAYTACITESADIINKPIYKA

Tlp3^LBD D169A = Tlp3^LBD D169A (Campylobacter jejuni, UniProt Q0P864, D169A); assay: biochemical
Tlp3^LBD D169A, sequence (Q0P864 41-290 D169A): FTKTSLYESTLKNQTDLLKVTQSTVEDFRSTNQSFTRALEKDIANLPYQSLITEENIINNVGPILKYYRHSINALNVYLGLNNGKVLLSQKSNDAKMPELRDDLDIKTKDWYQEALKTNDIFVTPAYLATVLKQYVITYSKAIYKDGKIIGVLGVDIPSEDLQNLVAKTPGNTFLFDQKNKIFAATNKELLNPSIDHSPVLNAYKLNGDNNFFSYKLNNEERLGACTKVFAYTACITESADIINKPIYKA

Tlp3^LBD D170A = Tlp3^LBD D170A (Campylobacter jejuni, UniProt Q0P864); assay: biochemical
Tlp3^LBD D170A, sequence (Q0P864 41-290 T170A): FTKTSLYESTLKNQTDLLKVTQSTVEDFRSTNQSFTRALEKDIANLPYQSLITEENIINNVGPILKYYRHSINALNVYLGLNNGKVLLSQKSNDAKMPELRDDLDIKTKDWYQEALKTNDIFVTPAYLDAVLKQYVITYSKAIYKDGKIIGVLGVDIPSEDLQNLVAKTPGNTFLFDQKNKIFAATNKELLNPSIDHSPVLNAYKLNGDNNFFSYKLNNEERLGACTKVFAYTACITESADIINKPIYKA

Tlp3^LBD W151A = Tlp3^LBD W151A (Campylobacter jejuni, UniProt Q0P864, W151A); assay: biochemical
Tlp3^LBD W151A, sequence (Q0P864 41-290 W151A): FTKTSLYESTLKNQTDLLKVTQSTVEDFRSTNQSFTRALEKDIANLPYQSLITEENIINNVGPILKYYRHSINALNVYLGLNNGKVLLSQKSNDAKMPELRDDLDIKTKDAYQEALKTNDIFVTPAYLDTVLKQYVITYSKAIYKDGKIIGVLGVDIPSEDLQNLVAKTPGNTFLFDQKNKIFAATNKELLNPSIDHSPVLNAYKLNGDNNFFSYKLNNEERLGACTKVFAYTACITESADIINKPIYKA

WT Tlp3^LBD = assay: SPR competition assay (A-B-A inject); assay type: binding, Campylobacter jejuni; settings: 15 seconds after injection-B; glucose 300 µM, fucose 300 μM, malic acid 200 μM
Procedure: . Competition A-B-A analyses determine the specificity of the potential ligand-binding site preferences of WT Tlp3^LBD. The bound protein is saturated with the first analyte (A), followed by the introduction of a second analyte (B); the assay is designed to show whether a cumulative response is observed after the second analyte (B) is added. A cumulative response indicates two independent binding sites, whereas the lack of a cumulative response indicates a single site where ligands compete for binding, i.e., when analyte A occupies a ligand binding site, analyte B cannot bind. […] All response data were normalized to a 100-Da molecular weight for each analyte, allowing direct comparison of the responses. Both actual RU values and theoretical values are recorded for comparison.
Figure S6. […] A) Injections are […]
at 300 μM for 60 seconds). Final responses units (RU) of injections are recorded (indicated by dashed vertical […]
81 at 15 s econds after injection- B and l fu cose […]
and fucose were compet ed was 4.4 RU ± 0.46. As this value sits be low 5 RU, it indicates direct competition for […]
Final respons es units (RU) of injections ar e re cor ded (indicated […]
As this value sits between
5.07- 13.5 RU, it indicates direct competition for the same site with glucos e replacing some of the bound malic acid during the 60 second injection- B.

[9] = SPR KD, mean ± SD, NB = no binding, read-out: Tlp3 Affinity
[10] = SPR KD, mean ± SD, NB = no binding, read-out: Tlp4 Affinity
[11] = SPR KD, mean ± SD, NB = no binding, read-out: Tlp2 Affinity

T1 sequence (Q0PBP3 entry or part of it): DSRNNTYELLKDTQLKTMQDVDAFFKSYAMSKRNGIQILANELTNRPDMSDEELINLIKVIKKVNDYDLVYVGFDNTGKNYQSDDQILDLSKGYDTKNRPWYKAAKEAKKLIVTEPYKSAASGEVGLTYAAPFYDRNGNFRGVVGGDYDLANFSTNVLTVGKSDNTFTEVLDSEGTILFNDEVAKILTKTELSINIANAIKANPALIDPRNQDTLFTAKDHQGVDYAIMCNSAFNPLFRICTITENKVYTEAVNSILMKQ

SMILES	binding to Tlp4 on glycan/small molecule array (Tlp4 [1]; yes/no binding)	binding to Tlp2 on glycan/small molecule array (Tlp2 [2]; yes/no binding)	Kd (Tlp3 [3]; [9])	Kd (Tlp4 [4]; [10])	Kd (Tlp2 [5]; [11])	binding to Tlp4 on glycan/small molecule array (Tlp4 [1])	binding to Tlp2 on glycan/small molecule array (Tlp2 [2])	Kd (Tlp4 [4])	Kd (Tlp2 [5])	further results
NC(=O)C[C@H](N)C(=O)O [Asparagine]	bound	bound	> 200 µM	45.1 ± 6.1 µM	12.8 ± 5.1 µM	–	–	–	–	–
N[C@@H](CC(=O)O)C(=O)O [Aspartate]	–	–	–	–	–	bound	bound	75.3 ± 8.1 µM	95.4 ± 0.9 µM	binding to Tlp3 on glycan/small molecule array (Tlp3 [6]): bind specifically
N[C@@H](CS)C(=O)O [Cysteine]	bound	bound	> 200 µM	5.7 ± 5.8 µM	10.8 ± 3.3 µM	–	–	–	–	chemotactic response via Tlp2 (Tlp2 [7]): did not generate any significant chemotactic response; also recorded: did not affect the chemotactic movement
O=C[C@H](O)[C@@H](O)[C@@H](O)[C@H](O)CO [Galactose]	–	–	–	–	–	interacted	interacted	18.3 ± 2.1 µM	17.2 ± 1.3 µM	binding to Tlp3 on glycan/small molecule array (Tlp3 [6]): interacted
N[C@H]1C(O)O[C@H](CO)[C@@H](O)[C@@H]1O (stereo partly drawn) [Glucosamine]	–	–	–	> 200 µM	> 200 µM	–	–	–	–	Kd (Tlp3^LBD K149A): 24.3 ± 2.1 µM; Kd (Tlp3 [3]): 7.1 ± 2.9 µM; Tlp3 CR (chemoresponse) (Tlp3 [8]): R; Kd (Tlp3^LBD D196A): 45.5 ± 7.3 µM; Kd (Tlp3^LBD D169A): 38.4 ± 6.45 µM; Kd (Tlp3^LBD D170A): 39.7 ± 8.6 µM; Kd (Tlp3^LBD W151A): 34.3 ± 12.7 µM
CC[C@H](C)[C@H](N)C(=O)O [Isoleucine]	–	–	–	> 200 µM	> 200 µM	–	–	–	–	–
O=C(O)CC(O)C(=O)O (stereo not drawn) [Malic acid]	–	–	–	> 10000 µM	> 10000 µM	–	–	–	–	SPR response of single analyte (WT Tlp3^LBD): 13.5 RU
CSCC[C@H](N)C(=O)O [Methionine]	–	–	–	–	–	bound	bound	6 ± 4.7 µM	1.9 ± 1.2 µM	Kd (Tlp3 [3]; read-out: Tlp3 Affinity): > 200 µM
N[C@@H](CO)C(=O)O [Serine]	bound	bound	> 200 µM	14.3 ± 3.2 µM	6.9 ± 2.4 µM	–	–	–	–	–
